Results on one molecule are retold here after patent US5874442A, “Tricyclic amides useful for inhibition of G-protein function and for treatment of proliferative disease” (Schering-Plough Corporation, priority 1996, dated 1999).

As usually defined, the IC50 is the concentration at which inhibition is half-maximal.

Assay [1] relates to PC3 (prostate). As to the kind of experiment: Soft agar assay. Type of assay: cell-based. To be noted: Homo sapiens, read-out: IC50, inhibition of human tumor cell growth, soft agar. How it is done: (§1) Anchorage-independent growth is a characteristic of tumorigenic cell lines. Human tumor cells are suspended in growth medium containing 0.3% agarose and an indicated concentration of a farnesyl transferase inhibitor. The solution is overlayed onto growth medium solidified with 0.6% agarose containing the same concentration of farnesyl transferase inhibitor as the top layer. After the top layer is solidified, plates are incubated for 10-16 days at 37° C. under 5% CO2 to allow colony outgrowth. After incubation, the colonies are stained by overlaying the agar with a solution of MTT (3-[4,5-dimethylthiazol-2-yl]-2,5-diphenyltetrazolium bromide, Thiazolyl blue) (1 mg/mL in PBS). Colonies are counted and the IC50's determined.

Assay [2] relates to AsPc-1. As to the kind of experiment: Soft agar assay. The format is cell-based. As to conditions: Homo sapiens, ASPC1; AsPc-1 (pancreatic) K ras mutation; read-out: IC50, inhibition of human tumor cell growth, soft agar. The protocol:
as §1

The subject of assay [3] is Ras-CVLS processing in COS cells. As to the kind of experiment: Cell-based COS cell assay: inhibition of Ras processing (Ras-CVLS). Set-up: species or system monkey. As to conditions: Primates, COS, read-out: Inhibition of Ras Processing IC50, Table 3, COS cells. An excerpt: Transient expression of val^12 -Ha-Ras-CVLS and […] -Ha-Ras-CVLL in COS monkey kidney cells: Effect of farnesyl protein transferase inhibitors on Ras processing and on disordered cell growth induced by transforming Ras.
COS monkey kidney cells were transfected by electroporation with the plasmid pSV-SPORT (Gibco/BRL) containing a cDNA insert encoding either Ras-CVLS or Ras-CVLL, leading to transient overexpression of a Ras substrate for either farnesyl protein transferase or geranylgeranyl protein transferase I, respectively (see above).
Following electroporation, cells were plated into 6-well tissue culture dishes containing 1.5 ml of Dulbecco's-modified Eagle's media (GIBCO, Inc.) supplemented with 10% fetal calf serum and the appropriate farnesyl protein transferase inhibitors. After 24 hours, media was removed and fresh media containing the appropriate drugs was re-added.
48 hours after electroporation cells were examined under the microscope to monitor disordered cell growth induced by transforming Ras. Cells expressing transforming Ras become more rounded and refractile and overgrow the monolayer, reminiscent of the transformed phenotype. Cells were then photographed, washed twice with 1 ml of cold phosphate-buffered saline (PBS) and removed from the dish by scraping with a rubber policeman into 1 ml of a buffer containing 25 mM Tris, pH 8.0; 1 mM ethylenediamine tetraacetic acid; 1 mM phenylmethylsulfonyl fluoride; […]; and 0.1 mM pepstatin. Cells were lysed by homogenization and cell debris was removed by centrifugation at 2000× g for 10 min.
Cellular protein was precipitated by addition of ice-cold trichloroacetic acid and redissolved in […] of SDS-electrophoresis sample buffer. […] Proteins resolved on the gels were electroblotted onto nitrocellulose membranes for immunodetection.
After washing, membranes were incubated for one hour at room temperature with a 1:5000 dilution of secondary antibody, rabbit anti-rat lgG conjugated to horseradish peroxidase, in PBS containing 1% fetal calf serum. The presence of processed and unprocessed Ras-CVLS or Ras-CVLL was detected using a colorimetric peroxidase reagent (4-chloro-1-naphthol) as described by the manufacturer (Bio-Rad).

For assay [4], the system named is H ras NIH 3T3. As to the kind of experiment: Soft agar assay. Type of assay: cell-based. To be noted: Mus musculus, NIH3T3, read-out: IC50, inhibition of human tumor cell growth, soft agar.

Where only a bound is given, the exact number is not on record here.

With `NC(=O)N1CCC(CC(=O)N2CCC([C@H]3c4ncc(Br)cc4CCc4cc(Cl)cc(Br)c43)CC2)CC1` [Example 10], the IC50 was 1.25 µM in assay [1], 3 µM in assay [2], less than 0.025 µM in assay [3] and 0.075 µM in assay [4].
